In patent US4175081A, “5-Substituted thiadiazole ureas” (priority 1977, dated 1979):

How the values were obtained:
Test in all cases: Post-emergence herbicide test
Barnyard grass (BG) = assay type: in vivo; conditions: Echinochloa crus-galli, 336 h, 4 lb/acre, two weeks after treatment
Procedure, shortened: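 Greenhouse pot-grown barnyard grass seedlings sprayed post-emergence at 8 lbs active compound per acre (some at 4 lbs/acre) in 38 gallons per acre, then sub-irrigated. Injury or control rated visually two weeks after treatment.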

Bean (BN) = assay type: in vivo, Phaseolus vulgaris var. Black Valentine; conditions: Phaseolus vulgaris, post-emergence, 336 h; 4 lb/acre; two weeks after treatment
Procedure, shortened: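 Snapbean (Phaseolus vulgaris var. Black Valentine) was tested post-emergence. Four seeds were sown in 3' plastic pots of potting soil at a depth equal to the seed diameter, then sub-irrigated in greenhouse trays. Planting dates were staggered so plants were sprayed once primary leaves had expanded, with the growing point at the primary leaf nodes.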

Crabgrass (CG) = assay type: in vivo, Digitaria sanquinalis; conditions: Digitaria sanguinalis, post-emergence, 336 h; 4 lb/acre; two weeks after treatment
Procedure, shortened: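 Crabgrass (Digitaria sanquinalis) was surface seeded individually in 3' plastic pots of potting soil, covered with screened soil, and watered by sub-irrigation in greenhouse trays. Planting was staggered so seedlings reached the target stage together. Post-emergence sprays were applied in a hood with a removable belt and fixed nozzle, and control was visually rated two weeks after treatment.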

[1] = test system: Yellow foxtail grass (YF); assay type: in vivo, Setaria glauca; conditions: Setaria, 336 h, 4 lb/acre, two weeks after treatment
Procedure: Yellow foxtail grass (YF)--Setaria glauca
All crop and weed species were planted individually in 3' plastic pots containing potting soil. Four seeds each of corn, cotton, and snapbeans were seeded to a depth equal to the diameter of the seed. All other species were surface seeded and sprinkled with screened soil in an amount sufficient to cover the seed. Immediately after planting, all pots were watered by sub-irrigation in greenhouse trays. Pots for the pre-emergence phase were seeded one day before treatment.
Planting dates for the post-emergence phase were varied so that all seedlings would reach the desired stage of development simultaneously. The proper stage of seedling development for treatment in the post-emergence phase is as follows:
Compounds were tested at rates of application equivalent to 8 lbs. of actual compound per acre in a spray volume of 38 gallons per acre. Spray hood constants required to deliver the above volume are as follows:
Formulations for spray applications were prepared in 50 ml volumes with the following three components:
Formulations for the 4 lbs/acre rate were prepared by adjusting the amount of active ingredient accordingly.
Spray applications were made in a hood containing a removable belt and fixed spray nozzle. For passage through the spray hood, one pot of each specie (pre-emergence phase) was placed on the rear half of the flat. Treatments were removed to the greenhouse after spraying. Watering during the observation period was done only by sub-irrigation.
Two weeks after treatment, pre- and post-emergence injury or control was visually rated, and the results were as shown in the following tables. Pre-emergence data are provided in TABLE III and post-emergence data are provided in TABLE IV, for compounds having the formula illustrated in TABLE I. Correspondingly, pre-emergence and post-emergence data, respectively, are set forth in TABLES V AND VI, for compounds having the formula illustrated in TABLE II.

Corn (CN) = assay type: in vivo; conditions: Zea mays, 336 h, 4 lb/acre, two weeks after treatment
Procedure, shortened: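 Greenhouse seedlings grown in potting soil and sprayed post-emergence at 8 lbs compound/acre (formulations also made for 4 lbs/acre) in 38 gallons/acre spray volume. Watering by sub-irrigation only. Injury or control rated visually two weeks after treatment.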

Cotton (CT) = assay type: in vivo, Gossypium hirsutum var. DPL smooth leaf; conditions: Gossypium hirsutum, post-emergence, 336 h; 4 lb/acre; two weeks after treatment
Procedure, shortened: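 Cotton (Gossypium hirsutum var. DPL smooth leaf) was grown in 3' plastic pots of potting soil, four seeds per pot, planted at a depth equal to the seed diameter and watered by sub-irrigation. At the stage of expanded cotyledons with the first true leaf 1' long, plants were sprayed post-emergence in a hood with a fixed nozzle over a moving belt. Percent control was rated visually two weeks later.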

Johnson grass (JG) = assay type: in vivo, Sorgum helepense; conditions: Sorghum halepense, 336 h, 4 lb/acre, two weeks after treatment
Procedure, shortened: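 Greenhouse pot-grown seedlings sprayed post-emergence at 8 lbs compound per acre (some at 4 lbs/acre) in 38 gallons per acre spray volume. Sub-irrigated thereafter. Injury/control rated visually two weeks after treatment.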

Turnip (TP) = assay type: in vivo, Brassica sp.; conditions: Brassica rapa, post-emergence, 336 h, two weeks after treatment; for pest or weed control at 4483.4 g/ha: 4 lb/acre
Procedure, shortened: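 A greenhouse post-emergence herbicide test on turnip. Seeds were sown on the surface of potting soil in 3' plastic pots, lightly covered with screened soil and watered from below. Planting was timed so seedlings had 1 or 2 true leaves above the cotyledons at spraying, done in a hood with a fixed nozzle. Control or injury was scored by eye after two weeks.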

Amaranth pigweed (PW) = assay type: in vivo, Amaranthus retroflexus; conditions: 336 h, 2 lb/acre, two weeks after treatment
Procedure, shortened: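 Pot-grown pigweed was sprayed post-emergence at the 1–2 true-leaf stage with compound at rates equivalent to 8 lbs per acre (formulations also prepared for 4 lbs/acre) in 38 gallons per acre, using a hood with fixed nozzle. Plants were sub-irrigated in the greenhouse, and injury or control was rated visually two weeks after treatment.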

SMILES | pest or weed control at 4483.4 g/ha (Barnyard grass (BG)) | pest or weed control at 4483.4 g/ha (Bean (BN)) | pest or weed control at 4483.4 g/ha (Crabgrass (CG)) | pest or weed control at 4483.4 g/ha [1] | pest or weed control at 4483.4 g/ha (Corn (CN)) | pest or weed control at 4483.4 g/ha (Cotton (CT)) | pest or weed control at 4483.4 g/ha (Johnson grass (JG)) | pest or weed control at 4483.4 g/ha (Turnip (TP)) | pest or weed control at 2241.7 g/ha (Amaranth pigweed (PW)) | pest or weed control at 2241.7 g/ha (Turnip (TP); 2 lb/acre)
CCC(C)Sc1nnc(NC(=O)NC)s1 (stereo not drawn) [Example 48] | 40% | 50% | 70% | 30% | 30% | 100% | 60% | 70% |  | 
C=C(C)CSc1nnc(NC(=O)NC)s1 [Example 49] | 40% | 50% | 80% | 40% | 40% | 100% | 40% | 90% | 100% | 70%
